From ChEMBL document CHEMBL1201862, “PubChem BioAssay data set” (2004)
Counter-ions that a name gives are not always drawn. Activity calls are given as the source filed them.

Assays:
Prothrombin = Prothrombin (Homo sapiens, UniProt P00734); test: Thrombin 1536 HTS Dose Response Confirmation. [Related pubchem assays: 1046 (Thrombin 1536 HTS; hits were confirmed in this assay)]; assay type: functional
Streptokinase A = target: T1, Streptokinase A (Streptococcus pyogenes serotype M1, UniProt P10520); test: Absorbance Microorganism-Based Dose Response Follow up to Identify Inhibitors of Streptokinase Expression. [Related pubchem assays: 1677 (Project Summary), 1915, 1914, 1902 (Retest at Dose), 1900 (Counter Screen), 1662 (Primary HTS)]; assay type: functional, Streptococcus pyogenes M1 GAS
T1 sequence (P10520 whole entry): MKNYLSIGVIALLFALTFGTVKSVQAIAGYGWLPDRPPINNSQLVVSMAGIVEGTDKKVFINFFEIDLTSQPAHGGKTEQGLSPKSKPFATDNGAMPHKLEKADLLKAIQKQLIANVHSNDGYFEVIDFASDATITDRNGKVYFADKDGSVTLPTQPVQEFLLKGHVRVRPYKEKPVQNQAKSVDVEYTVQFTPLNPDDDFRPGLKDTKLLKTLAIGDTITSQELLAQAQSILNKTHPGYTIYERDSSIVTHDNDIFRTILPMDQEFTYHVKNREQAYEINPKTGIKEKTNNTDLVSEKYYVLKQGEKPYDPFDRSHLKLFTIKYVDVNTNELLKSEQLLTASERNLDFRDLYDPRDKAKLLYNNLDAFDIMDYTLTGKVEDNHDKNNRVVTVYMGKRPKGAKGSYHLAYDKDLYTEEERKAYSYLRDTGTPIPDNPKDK

Streptococcus = test: GAS bacterial viability reduction – luminescence, BacTiter-Glo, strain UMAA2166, counter-screen for streptokinase expression inhibitor project, dose response (AID 2477); assay type: functional, organism-based
[1] = target: T2, 1-phosphatidylinositol 4,5-bisphosphate phosphodiesterase gamma-1 (Homo sapiens, UniProt P19174); test: Counterscreen for inhibitors of phospholipase C isozymes (PLC-B3): Fluorescence-based biochemical high throughput dose response assay to identify inhibitors of phospholipase C isozymes (PLC-gamma1).
T2 sequence (P19174 whole entry): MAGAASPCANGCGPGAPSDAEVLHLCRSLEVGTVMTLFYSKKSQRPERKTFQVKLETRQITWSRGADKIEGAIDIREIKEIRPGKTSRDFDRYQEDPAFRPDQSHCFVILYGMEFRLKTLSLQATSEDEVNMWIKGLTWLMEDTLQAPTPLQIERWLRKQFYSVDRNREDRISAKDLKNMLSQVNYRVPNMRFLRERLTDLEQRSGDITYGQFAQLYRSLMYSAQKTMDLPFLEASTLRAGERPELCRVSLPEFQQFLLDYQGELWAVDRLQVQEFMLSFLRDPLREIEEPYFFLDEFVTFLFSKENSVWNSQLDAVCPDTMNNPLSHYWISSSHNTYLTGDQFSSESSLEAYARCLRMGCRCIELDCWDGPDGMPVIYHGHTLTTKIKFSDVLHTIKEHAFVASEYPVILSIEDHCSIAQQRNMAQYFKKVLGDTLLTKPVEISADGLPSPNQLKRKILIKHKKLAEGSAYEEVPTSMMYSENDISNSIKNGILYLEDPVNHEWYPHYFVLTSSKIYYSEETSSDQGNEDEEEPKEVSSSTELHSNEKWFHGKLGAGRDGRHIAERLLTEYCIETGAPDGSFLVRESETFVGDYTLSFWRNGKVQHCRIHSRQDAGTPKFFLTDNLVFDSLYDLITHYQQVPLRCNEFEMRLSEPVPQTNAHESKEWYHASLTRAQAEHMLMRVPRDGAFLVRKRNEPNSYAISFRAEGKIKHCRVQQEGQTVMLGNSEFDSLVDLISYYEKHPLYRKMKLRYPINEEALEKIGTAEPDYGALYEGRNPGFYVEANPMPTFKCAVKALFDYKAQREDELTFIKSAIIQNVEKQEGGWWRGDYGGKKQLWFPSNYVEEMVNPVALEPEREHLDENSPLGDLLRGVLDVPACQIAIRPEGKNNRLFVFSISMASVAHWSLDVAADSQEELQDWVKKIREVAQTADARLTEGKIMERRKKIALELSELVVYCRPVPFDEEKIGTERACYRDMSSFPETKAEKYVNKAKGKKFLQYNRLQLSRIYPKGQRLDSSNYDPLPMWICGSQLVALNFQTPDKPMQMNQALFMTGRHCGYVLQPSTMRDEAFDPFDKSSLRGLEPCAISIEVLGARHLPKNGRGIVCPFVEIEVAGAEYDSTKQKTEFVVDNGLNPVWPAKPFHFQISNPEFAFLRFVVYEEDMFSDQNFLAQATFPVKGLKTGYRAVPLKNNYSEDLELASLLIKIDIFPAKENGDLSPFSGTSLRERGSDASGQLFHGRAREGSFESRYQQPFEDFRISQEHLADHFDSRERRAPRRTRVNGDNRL

[2] = target: T3, 1-phosphatidylinositol 4,5-bisphosphate phosphodiesterase beta-3 (Homo sapiens, UniProt Q01970); test: Fluorescence-based biochemical high throughput dose response assay to identify inhibitors of phospholipase C isozymes (PLC-B3).
T3 sequence (Q01970 whole entry): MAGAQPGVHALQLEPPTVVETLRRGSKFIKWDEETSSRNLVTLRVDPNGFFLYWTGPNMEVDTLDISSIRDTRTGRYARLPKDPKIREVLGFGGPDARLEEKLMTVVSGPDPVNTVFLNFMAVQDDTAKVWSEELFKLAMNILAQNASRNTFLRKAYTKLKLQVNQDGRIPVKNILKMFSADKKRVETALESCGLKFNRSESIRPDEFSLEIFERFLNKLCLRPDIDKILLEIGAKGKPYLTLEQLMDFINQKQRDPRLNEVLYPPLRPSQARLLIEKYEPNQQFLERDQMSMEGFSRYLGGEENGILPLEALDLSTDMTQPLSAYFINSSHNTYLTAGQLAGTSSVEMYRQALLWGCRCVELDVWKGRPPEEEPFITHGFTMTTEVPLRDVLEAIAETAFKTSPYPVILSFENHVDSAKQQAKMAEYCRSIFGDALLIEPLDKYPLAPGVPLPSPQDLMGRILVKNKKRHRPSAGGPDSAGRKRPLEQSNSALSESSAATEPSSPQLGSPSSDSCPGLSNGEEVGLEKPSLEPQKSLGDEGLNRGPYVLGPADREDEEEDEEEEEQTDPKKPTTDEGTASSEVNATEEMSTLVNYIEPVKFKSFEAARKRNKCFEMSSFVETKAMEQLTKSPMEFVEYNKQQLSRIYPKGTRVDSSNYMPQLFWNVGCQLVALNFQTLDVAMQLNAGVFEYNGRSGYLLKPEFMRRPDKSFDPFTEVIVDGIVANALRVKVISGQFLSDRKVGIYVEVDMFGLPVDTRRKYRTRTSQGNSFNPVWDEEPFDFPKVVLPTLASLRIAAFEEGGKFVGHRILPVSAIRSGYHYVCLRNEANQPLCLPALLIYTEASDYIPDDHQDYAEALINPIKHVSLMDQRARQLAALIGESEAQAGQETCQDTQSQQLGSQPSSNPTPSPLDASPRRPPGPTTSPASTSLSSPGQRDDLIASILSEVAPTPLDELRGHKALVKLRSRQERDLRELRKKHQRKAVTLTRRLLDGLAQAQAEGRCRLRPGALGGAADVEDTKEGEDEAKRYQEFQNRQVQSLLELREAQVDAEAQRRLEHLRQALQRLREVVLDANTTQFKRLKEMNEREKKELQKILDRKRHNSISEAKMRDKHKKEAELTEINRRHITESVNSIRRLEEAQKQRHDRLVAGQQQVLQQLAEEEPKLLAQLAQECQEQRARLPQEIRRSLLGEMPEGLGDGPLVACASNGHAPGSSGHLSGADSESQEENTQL

Cytochrome P450 2D6 = Cytochrome P450 2D6 (Homo sapiens, UniProt P10635);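 also: CYP2D6 member of a cytochrome P450 panel assay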
Cytochrome P450 2D6, sequence (P10635 whole entry): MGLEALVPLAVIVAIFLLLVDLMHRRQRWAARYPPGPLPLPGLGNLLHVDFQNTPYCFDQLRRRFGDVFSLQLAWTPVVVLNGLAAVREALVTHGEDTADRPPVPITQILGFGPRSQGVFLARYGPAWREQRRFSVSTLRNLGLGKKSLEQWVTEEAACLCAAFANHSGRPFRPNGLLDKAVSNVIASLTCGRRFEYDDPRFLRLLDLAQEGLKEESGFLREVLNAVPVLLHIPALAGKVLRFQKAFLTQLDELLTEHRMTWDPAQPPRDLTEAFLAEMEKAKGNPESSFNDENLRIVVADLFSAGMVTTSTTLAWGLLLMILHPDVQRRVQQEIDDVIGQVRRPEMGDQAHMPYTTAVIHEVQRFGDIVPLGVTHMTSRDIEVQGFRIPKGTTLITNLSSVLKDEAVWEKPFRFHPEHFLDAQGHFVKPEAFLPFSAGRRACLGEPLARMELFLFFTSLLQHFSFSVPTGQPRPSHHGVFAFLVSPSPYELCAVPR

[3] = HPDE-C7 pancreatic duct cell viability loss – fluorescence, HTS (AID 430); assay type: functional, cell-based; settings: Homo sapiens
[4] = viability loss of HPDE-C7K cells – cell-based, fluorescence, HTS, primary screen (AID 431); assay type: functional; settings: Homo sapiens
[5] = target: Induced myeloid leukemia cell differentiation protein Mcl-1 (Homo sapiens, UniProt Q07820); assay type: functional
Induced myeloid leukemia cell differentiation protein Mcl-1, sequence (Q07820 whole entry): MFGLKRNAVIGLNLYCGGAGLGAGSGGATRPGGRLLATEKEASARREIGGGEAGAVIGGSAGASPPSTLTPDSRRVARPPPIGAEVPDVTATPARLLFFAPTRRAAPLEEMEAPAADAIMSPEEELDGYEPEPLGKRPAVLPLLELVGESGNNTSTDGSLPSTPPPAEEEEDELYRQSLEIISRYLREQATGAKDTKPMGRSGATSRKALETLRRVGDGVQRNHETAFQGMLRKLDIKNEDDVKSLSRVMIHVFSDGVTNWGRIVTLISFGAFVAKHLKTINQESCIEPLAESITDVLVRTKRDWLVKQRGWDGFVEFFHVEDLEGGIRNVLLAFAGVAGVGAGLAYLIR

[6] = target: T4, Mannose-6-phosphate isomerase (Homo sapiens, UniProt P34949); test: MPI inhibition at elevated mannose 6-phosphate – biochemical, fluorescence intensity, high mannose 6-phosphate, primary screen (AID 1220)
T4 sequence (P34949 whole entry): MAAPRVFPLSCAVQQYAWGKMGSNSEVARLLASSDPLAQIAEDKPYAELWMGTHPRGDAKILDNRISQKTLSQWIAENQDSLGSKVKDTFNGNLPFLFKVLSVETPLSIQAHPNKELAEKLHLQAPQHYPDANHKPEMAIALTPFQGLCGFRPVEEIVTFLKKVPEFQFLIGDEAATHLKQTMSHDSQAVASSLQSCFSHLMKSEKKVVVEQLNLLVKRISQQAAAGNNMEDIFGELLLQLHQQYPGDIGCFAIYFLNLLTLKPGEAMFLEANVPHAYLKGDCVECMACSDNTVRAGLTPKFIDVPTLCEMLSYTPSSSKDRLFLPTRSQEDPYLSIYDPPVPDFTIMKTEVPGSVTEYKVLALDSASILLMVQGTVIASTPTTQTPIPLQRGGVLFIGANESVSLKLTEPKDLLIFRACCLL

[7] = NIH-3T3 fibroblast cytotoxicity, dose response, cytotoxicity control, cell-based, fluorescence, Alamar Blue, secondary assay (AID 2327); assay type: functional;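 also: NIH-3T3 mouse fibroblasts cultured with fluconazole at 8 µg/mL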
[8] = fluconazole-exposed Candida albicans growth modulators – fluorescence, retest, confirmation (AID 2467); assay type: functional, cell-based
[9] = Trypanosoma cruzi growth suppression in host cells – NIH3T3 host cells, beta-gal luminescence, confirmation (AID 2044); assay type: functional, cell-based;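 also: intracellular parasites grown in NIH/3T3 mouse fibroblasts as host cells; luminescent beta-galactosidase reporter signal from transgenic T. cruzi replicating inside host cells; inhibitors lower the luminescence signal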
[10] = NIH3T3 cell viability loss – ATP luminescence, mouse fibroblasts, counter-screen, dose response (AID 2010); assay type: functional, cell-based;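 also: cells exposed to compound for about 90 hours before reading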
Nonstructural protein 1 = Nonstructural protein 1 (Influenza A virus, UniProt Q194T2); assay type: functional, Influenza A virus (A/California/07/2009(H1N1))
Nonstructural protein 1, sequence (Q194T2 whole entry): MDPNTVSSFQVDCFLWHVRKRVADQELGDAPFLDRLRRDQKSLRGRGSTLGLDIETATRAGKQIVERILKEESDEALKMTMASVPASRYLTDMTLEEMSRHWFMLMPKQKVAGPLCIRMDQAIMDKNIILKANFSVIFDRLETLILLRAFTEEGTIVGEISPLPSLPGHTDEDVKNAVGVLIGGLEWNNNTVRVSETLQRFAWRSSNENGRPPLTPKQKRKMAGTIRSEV

INS1 = test: INS-1E survival protection against cytokine death – cell-based, luminescence, retest, dose response (AID 449756); assay type: functional; settings: Rattus norvegicus;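 also: cell death triggered by IL-1 beta plus TNF-alpha plus IFN-gamma mixture; protective hits raise ATP signal compared with cytokine alone wells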
Caspase-6 = target: T5, Caspase-6 (Homo sapiens, UniProt P55212); test: inhibition of CASP6 peptide cleavage – biochemical, VEID-R110 fluorescence, cherry-pick, dose response (AID 720632)
T5 sequence (P55212 whole entry): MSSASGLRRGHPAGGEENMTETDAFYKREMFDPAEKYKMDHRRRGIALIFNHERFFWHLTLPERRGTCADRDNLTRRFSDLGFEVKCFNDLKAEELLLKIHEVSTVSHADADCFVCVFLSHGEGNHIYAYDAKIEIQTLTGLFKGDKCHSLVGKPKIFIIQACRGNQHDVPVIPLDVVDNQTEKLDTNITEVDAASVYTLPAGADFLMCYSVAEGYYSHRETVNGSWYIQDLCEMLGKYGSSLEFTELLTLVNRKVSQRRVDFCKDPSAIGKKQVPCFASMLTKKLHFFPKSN

[11] = target: Voltage-dependent T-type calcium channel subunit alpha-1H (Homo sapiens, UniProt O95180); assay type: functional;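 also: channel activity triggered by adding a high calcium stimulation buffer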
Voltage-dependent T-type calcium channel subunit alpha-1H, sequence (O95180 whole entry): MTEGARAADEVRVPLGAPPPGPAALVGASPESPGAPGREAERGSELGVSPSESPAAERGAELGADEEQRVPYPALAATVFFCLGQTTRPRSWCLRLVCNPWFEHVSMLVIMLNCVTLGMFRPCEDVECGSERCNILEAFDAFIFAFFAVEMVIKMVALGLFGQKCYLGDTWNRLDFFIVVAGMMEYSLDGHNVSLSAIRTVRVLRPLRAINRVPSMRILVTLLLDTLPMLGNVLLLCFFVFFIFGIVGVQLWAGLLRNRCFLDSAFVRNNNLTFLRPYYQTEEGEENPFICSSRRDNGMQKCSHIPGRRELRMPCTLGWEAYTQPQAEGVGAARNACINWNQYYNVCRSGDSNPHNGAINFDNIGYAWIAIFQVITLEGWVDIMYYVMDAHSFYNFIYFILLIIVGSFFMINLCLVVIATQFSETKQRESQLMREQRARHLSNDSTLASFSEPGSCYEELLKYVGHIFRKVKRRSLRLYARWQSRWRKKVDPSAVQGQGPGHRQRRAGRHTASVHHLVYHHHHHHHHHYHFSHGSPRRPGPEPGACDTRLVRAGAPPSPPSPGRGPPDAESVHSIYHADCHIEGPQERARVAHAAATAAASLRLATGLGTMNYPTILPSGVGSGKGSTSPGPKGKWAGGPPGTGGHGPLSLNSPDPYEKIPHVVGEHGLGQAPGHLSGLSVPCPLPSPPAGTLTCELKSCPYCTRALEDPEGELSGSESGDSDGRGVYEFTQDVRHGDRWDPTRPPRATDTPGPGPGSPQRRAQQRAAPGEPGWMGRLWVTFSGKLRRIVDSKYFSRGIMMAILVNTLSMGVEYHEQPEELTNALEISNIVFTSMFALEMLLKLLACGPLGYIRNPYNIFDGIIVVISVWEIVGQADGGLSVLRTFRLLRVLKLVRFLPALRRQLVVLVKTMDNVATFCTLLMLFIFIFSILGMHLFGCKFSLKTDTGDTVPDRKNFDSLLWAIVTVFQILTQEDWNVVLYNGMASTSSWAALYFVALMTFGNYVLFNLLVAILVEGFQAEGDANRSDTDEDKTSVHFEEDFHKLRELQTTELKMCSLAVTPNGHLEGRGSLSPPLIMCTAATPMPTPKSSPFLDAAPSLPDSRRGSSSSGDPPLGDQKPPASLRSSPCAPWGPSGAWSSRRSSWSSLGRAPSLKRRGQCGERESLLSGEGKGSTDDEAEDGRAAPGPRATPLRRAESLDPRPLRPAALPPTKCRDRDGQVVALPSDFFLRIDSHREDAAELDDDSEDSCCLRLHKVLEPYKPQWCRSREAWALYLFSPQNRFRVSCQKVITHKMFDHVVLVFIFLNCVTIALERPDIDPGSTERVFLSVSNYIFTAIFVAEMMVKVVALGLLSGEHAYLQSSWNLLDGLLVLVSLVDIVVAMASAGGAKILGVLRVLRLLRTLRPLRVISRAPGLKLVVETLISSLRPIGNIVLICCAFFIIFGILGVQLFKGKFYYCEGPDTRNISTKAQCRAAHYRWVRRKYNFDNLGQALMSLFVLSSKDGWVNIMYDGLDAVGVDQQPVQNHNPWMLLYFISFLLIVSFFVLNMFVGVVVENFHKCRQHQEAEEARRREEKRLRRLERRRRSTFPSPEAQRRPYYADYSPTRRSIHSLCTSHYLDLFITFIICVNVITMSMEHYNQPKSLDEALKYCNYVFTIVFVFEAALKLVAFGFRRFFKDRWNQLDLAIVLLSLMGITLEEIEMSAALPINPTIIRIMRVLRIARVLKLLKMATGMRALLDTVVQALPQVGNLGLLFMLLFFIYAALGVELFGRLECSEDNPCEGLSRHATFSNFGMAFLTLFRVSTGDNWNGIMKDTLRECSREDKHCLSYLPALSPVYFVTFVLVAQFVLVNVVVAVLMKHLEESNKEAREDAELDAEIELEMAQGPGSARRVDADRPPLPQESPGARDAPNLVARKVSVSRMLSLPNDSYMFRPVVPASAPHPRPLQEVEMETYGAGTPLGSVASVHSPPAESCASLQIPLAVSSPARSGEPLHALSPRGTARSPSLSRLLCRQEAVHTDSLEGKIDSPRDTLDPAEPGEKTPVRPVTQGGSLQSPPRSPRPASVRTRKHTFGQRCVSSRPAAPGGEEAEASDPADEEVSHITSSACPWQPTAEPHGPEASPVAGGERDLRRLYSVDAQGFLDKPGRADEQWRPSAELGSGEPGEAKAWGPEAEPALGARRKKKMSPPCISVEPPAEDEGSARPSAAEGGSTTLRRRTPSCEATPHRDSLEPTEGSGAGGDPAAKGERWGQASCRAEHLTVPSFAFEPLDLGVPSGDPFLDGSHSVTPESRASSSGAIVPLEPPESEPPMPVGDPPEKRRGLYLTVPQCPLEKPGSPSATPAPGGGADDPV

[12] = Luminescence Cell-Based Dose Retest to Confirm Inhibitors of Cancer Stem Cells. [Related pubchem assays (depositor defined):AID2717, AID2721]; assay type: functional; settings: Homo sapiens

Cc1cc(C(=O)OCC(=O)c2cccc([N+](=O)[O-])c2)c2cccc(C)c2n1
IC50 (Prothrombin): > 50 µM (inconclusive)

CCc1nccn1C(=O)c1cnn2c(C(F)F)cc(-c3ccccc3)nc12
IC50 (Prothrombin): 0.916 µM (active)

CCCOc1ccc(-c2nc(Oc3ccc(OC)cc3)c3ccccc3n2)cc1
EC50 (Streptokinase A): 179 µM (active)
EC50 (Streptococcus): > 500 µM (not active)

O=C(Cc1cccs1)N1CCC(c2nc3c(nnn3Cc3ccccc3Cl)c(=O)[nH]2)CC1
IC50 [1]: > 122 µM (inactive)
IC50 [2]: > 122 µM (inactive)
AC50 (Cytochrome P450 2D6): 14.1 µM (inconclusive)

Cc1ccc(-n2c(C)cc(C3N=C(N)Nc4nc5ccccc5n43)c2C)c(C)c1 (stereo not given)
EC50 [3]: 11 µM (active)
EC50 [4]: 12.7 µM (active)

COc1ccc(N2CCC(CNS(=O)(=O)c3cccc(C(F)(F)F)c3)C2)cc1 (stereo not given)
IC50 [5]: > 54 µM (active)
IC50 [6]: > 50 µM (not active)

COc1nc(-c2ccccc2)nc2ccccc12
EC50 (Streptokinase A): 75.4 µM (active)
EC50 (Streptococcus): > 500 µM (not active)

CCOC(=O)C1CCN(Cc2ccc(O)c3ncccc23)CC1
EC50 [7]: 22.2 µM (active)
EC50 [8]: > 38 µM (not active)
EC50 [9]: 3.26 µM (active)
EC50 [10]: > 60 µM (not active)
IC50 [6]: > 50 µM (not active)
IC50 (Nonstructural protein 1): 5.25 µM (active)
AC50 (INS1): 3.76 µM (active)

COC(=O)COc1nc(C)c2c(c1C#N)CC(C)(C)OC2
IC50 [1]: > 123 µM (inactive)
IC50 [2]: > 123 µM (inactive)

Cc1ccc(/C=C/C2=Cc3c(sc(NC(=O)CSc4n[nH]c(N)n4)c3C#N)C(C)(C)C2)o1
EC50 [3]: 7.52 µM (active)
EC50 [4]: 7.17 µM (active)

O=[N+]([O-])c1cccc(NS(=O)(=O)c2ccc(-c3ccc(O)nn3)s2)c1
AC50 (Caspase-6): 40.3 µM (active)

Cc1cccc(C)c1NC(=S)N/N=C/c1c(Cl)cccc1Cl
IC50 (Prothrombin): > 50 µM (not active)

Fc1ccc(C(c2ccc(F)cc2)N2CCN(C/C=C/c3ccccc3)CC2)cc1 [FLUNARIZINE DIHYDROCHLORIDE]
EC50 [3]: 5.99 µM (active)
EC50 [4]: 5.85 µM (active)
EC50 [11]: 5.62 µM (active)
AC50 [12]: 4.94 µM (active)
